# Experimental data published in PubChem BioAssay (NCI).
#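 Cells were grown in 96-well plates and exposed to each compound for 48 hours at five concentrations; endpoints were interpolated linearly between bracketing concentrations, or set to the highest concentration if not reached. GI50 is the concentration that inhibits growth by half. Definition used: TGI = concentration required for complete inhibition of growth.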
# What was measured:
# Assay in all cases: DTP human tumour cell line panel, 48 h
# [1] = tested on: U251 CNS
# [2] = tested on: EKVX NSCLC
# [3] = tested on: NCI-H23 lung
# [4] = tested on: OVCAR-4 ovarian
# [5] = tested on: SK-OV-3 ovarian
# [6] = tested on: MCF7 breast
# [7] = tested on: UACC-257 melanoma
# [8] = tested on: UO-31 renal
# [9] = tested on: HOP-18 NSCLC
# [10] = tested on: SNB-75 CNS
# [11] = tested on: DMS 273 small cell lung
# [12] = tested on: A549 NSCLC
smiles,measurement,setting,value
CCCc1c(-c2ccccc2)[nH]c2ccccc2c1=O,TGI,[1],> 100 µM
same,TGI,[2],> 100 µM
same,TGI,[3],> 100 µM
same,TGI,[4],> 100 µM
same,TGI,[5],> 100 µM
same,TGI,[6],> 100 µM
same,TGI,[7],> 100 µM
same,TGI,[8],69.1 µM
Nc1ccn(C2C=C(CO)C(O)C2O)c(=O)c1 (centres undefined),TGI,[9],> 625 µM
same,TGI,[4],> 625 µM
same,TGI,[10],> 625 µM
same,TGI,[11],> 625 µM
same,TGI,[5],> 625 µM
same,TGI,[6],> 625 µM
same,TGI,[8],> 625 µM
same,TGI,[12],> 625 µM
COc1nc(=O)n(COC(CO)CN2C(=O)c3ccccc3C2=O)cc1Cc1cccc(OCc2ccccc2)c1 (centres undefined),TGI,[9],72.5 µM
same,TGI,[1],51.8 µM
same,TGI,[2],> 100 µM
same,TGI,[3],> 100 µM
same,TGI,[4],57.8 µM
same,TGI,[10],46.2 µM
same,TGI,[11],45.4 µM
same,TGI,[5],90.6 µM
same,TGI,[8],52.4 µM
same,TGI,[12],75.8 µM
O=C1OC2(CC1C1(O)C3CC4CC(C3)CC1C4)C1CC3CC(C1)CC2C3 (centres undefined),TGI,[9],35.8 µM
same,TGI,[3],> 100 µM
same,TGI,[4],76.6 µM
same,TGI,[10],> 100 µM
same,TGI,[11],> 100 µM
same,TGI,[7],> 100 µM
same,TGI,[8],> 100 µM
same,TGI,[12],> 100 µM
C=CC1(NC(=O)c2ccccc2)CCC(C(C)(C)C)CC1 (centres undefined),TGI,[9],> 95.6 µM
same,TGI,[1],53.8 µM
same,TGI,[2],> 83.2 µM
same,TGI,[3],> 85 µM
same,TGI,[4],> 100 µM
same,TGI,[10],> 81.5 µM
same,TGI,[11],> 73.2 µM
same,TGI,[5],> 100 µM
same,TGI,[6],> 83.5 µM
same,TGI,[7],> 77 µM
same,TGI,[8],77.7 µM
same,TGI,[12],> 100 µM
CN(C)CCCN1c2ccccc2Sc2ccc3ccccc3c21,TGI,[1],20 µM
same,TGI,[2],23.9 µM
same,TGI,[3],28.2 µM
same,TGI,[4],17.8 µM
same,TGI,[5],27.5 µM
same,TGI,[6],14.9 µM
same,TGI,[7],4.1 µM
same,TGI,[8],17 µM
same,TGI,[12],26.6 µM
N#C[C@H](OC1OC(COC2OC(CO)C(O)C(O)C2O)C(O)C(O)C1O)c1ccccc1 (some centres undefined),TGI,[9],> 250 µM
same,TGI,[1],> 250 µM
same,TGI,[2],> 250 µM
same,TGI,[3],> 250 µM
same,TGI,[4],> 250 µM
same,TGI,[10],> 250 µM
same,TGI,[11],> 250 µM
same,TGI,[5],> 250 µM
same,TGI,[6],> 250 µM
same,TGI,[7],> 250 µM
same,TGI,[8],> 250 µM
same,TGI,[12],> 250 µM
CCN(CC)c1ccc2cc(C(=O)Nc3ccc4[nH]c(C(=O)N5C[C@@H](CCl)c6c5cc(OC(=O)Nc5ccccc5)c5[nH]cc(C)c65)cc4c3)oc2c1,GI50,[1],92.7 µM
same,TGI,[1],235 µM
same,GI50,[2],448 µM
same,GI50,[3],230 µM
same,TGI,[3],> 1000 µM
same,GI50,[4],428 µM
same,TGI,[4],> 1000 µM
same,TGI,[10],> 1000 µM
same,GI50,[11],70.4 µM
same,GI50,[6],68.8 µM
same,TGI,[6],> 1000 µM
same,TGI,[7],> 1000 µM
same,TGI,[8],982 µM
same,GI50,[12],147 µM
same,TGI,[12],> 1000 µM
O=C(CCl)NNC1=Nc2ccc(Cl)cc2SC1,TGI,[9],3.36 µM
same,TGI,[1],4.28 µM
same,TGI,[2],4.08 µM
same,TGI,[3],6.27 µM
same,TGI,[4],5.63 µM
same,TGI,[10],5.14 µM
same,TGI,[11],8.29 µM
same,TGI,[5],16.7 µM
same,TGI,[6],7.62 µM
same,TGI,[7],7.53 µM
same,TGI,[8],3.49 µM
same,TGI,[12],26.2 µM
